From the OPERA property sets (Mansouri et al. 2018) come the findings set out here.

Structures are written as SMILES.

Settings in the first series: not given
One may read the melting point as the temperature, or range, at which the solid turns liquid. In turn, `CC[C@H]1OC(=O)[C@H](C)[C@@H](O[C@H]2C[C@@](C)(OC)[C@@H](O)[C@H](C)O2)[C@H](C)[C@@H](O[C@@H]2O[C@H](C)C[C@H](N(C)C)[C@H]2O)[C@](C)(O)C[C@@H](C)CN(C)[C@H](C)[C@@H](O)[C@]1(C)O` gave a melting point of 114 °C.

Compound `CC(=O)c1ccc(C(F)(F)F)cc1` displayed a melting point of 31 °C. One may read the boiling point as the temperature at which the vapour pressure of the liquid equals the pressure above it. In turn, `CCC(C)(C)CCC(C)C` had a boiling point of 153 °C.

For the compound `CN(C)CC(O)CN(C)C`, the boiling point was found to be 182 °C. The compound `O=C(O)c1c(F)cccc1F` displayed a melting point of 159 °C.

As to `C[C@H](CS)C(=O)N1CCC[C@H]1C(=O)O`, the melting point is 106 °C.

For the compound `CC(C)CCC#N`, the boiling point came to 156 °C and the melting point was -51 °C.

Take `CC1CC(CC2CCC(N)C(C)C2)CCC1N` (stereo not given): the ready biodegradability result was “not readily biodegradable”. Take `Nc1ccccc1S(=O)(=O)O`: the ready biodegradability entry is given as “not readily biodegradable”.

The compound `CCC(C)(C)c1cc(C)cc(C(C)(C)CC)c1O` gave a boiling point of 283 °C. Take `CCCCCCCCCCCCCCCC(=O)OCCCC`: the melting point amounted to 16.9 °C.

Regarding `CCCCCCCCN(C)CCCCCCCC`, the melting point is -30.1 °C. On the same count and under the same terms, the same measure for `Cc1c2ccccc2c(C)c2ccccc12`: 183 °C.

With `CCNc1nsc2ccccc12`, the melting point is 78 °C. As to `CCCCCC1=CCCC1`, the boiling point amounted to 179 °C and the melting point was -83 °C. `O=C(O)c1cc(Cl)cc(Cl)c1` came in with a melting point of 188 °C.

Regarding `N=C(NCCCCCCNC(=N)NC(=N)Nc1ccc(Cl)cc1)NC(=N)Nc1ccc(Cl)cc1`, the melting point is 134 °C. On to `CC(C)COCCO`, for which the boiling point is 160 °C. As to `OC(COc1ccccc1)COc1ccccc1`, the melting point was found to be 81.5 °C. As for `C=C(CC(=O)OCC)C(=O)OCC`, the boiling point was 228 °C and the melting point worked out at 58.5 °C. As to `CC(C(=O)O)c1ccc(C2CCC/C(=N\O)C2)cc1` (stereo not given), the melting point was 178 °C. In the case of `CCSCC[C@H](N)C(=O)O`, the melting point turned out to be 195 °C. Same read-out and setting: the figure for `NC(=O)c1cccc2ccccc12` is 206 °C. `CC(C)CC(=O)OCC(COC(=O)CC(C)C)OC(=O)CC(C)C` came in with a boiling point of 332 °C. Regarding `NC(=O)N1CCCCC1`, the melting point was found to be 105 °C.

Compound `CN(C)c1ccc(Br)cc1` returned a boiling point of 264 °C and a melting point of 55 °C. `O=Cc1ccccn1` displayed a boiling point of 180 °C.

In the case of `O=S(=O)(c1ccccc1)c1ccc(Cl)cc1`, the melting point was found to be 94 °C.

As for `C[N+](C)(C)CC(=O)O.[Cl-]`, the melting point is 242 °C. On the same count and under the same terms, the figure for `O=C(O)C=CC=Cc1ccc2c(c1)OCO2` is 215 °C; for `COC1=CC=C2[C@H]3Cc4ccc(OC)c5c4[C@@]2(CCN3C)[C@H]1O5` it is 193 °C. On the same count and under the same terms, the same measure for `Cc1cccc(C)c1NC(=O)C(C)N` (stereo not given): 256 °C.

`C=CCC1(CC=C)C(=O)NC(=O)NC1=O` came in with a melting point of 172 °C. On the same count and under the same terms, the figure for `Fc1ccc(N2CCNCC2)cc1` is 31.5 °C. In turn, `Cc1ccc(NO)cc1` registered a melting point of 96 °C. Same read-out and setting: the figure for `O=C(CBr)c1ccc(Br)cc1` is 111 °C; for `CN(C)CC/C=C1\c2ccccc2CSc2ccccc21` it is 56 °C. With `Nc1ccc2cc3ccc(N)cc3nc2c1`, the melting point was 285 °C. Still for that read-out and setting: the same measure for `NC(=O)c1ccncc1`: 156 °C. As for `SCCS`, the boiling point is 146 °C, the log10 vapour pressure (mmHg) was found to be 0.749 and the melting point was -41.2 °C. With `N#CCCOCCC#N`, the boiling point came out at 306 °C, the log10 vapour pressure (mmHg) was -3.76, the melting point is -26.3 °C and the ready biodegradability result was “readily biodegradable”.

`CC1Cc2ccccc2C1` returned a boiling point of 195 °C. Turning to `C[Si](C)(C)O[Si](O[Si](C)(C)C)(O[Si](C)(C)C)O[Si](C)(C)C`, the log10 vapour pressure (mmHg) is -1.17. Regarding `CCCCCCOC=O`, the boiling point worked out at 156 °C and the melting point is -62.6 °C. `C=CC(=C)CCC=C(C)C`: the boiling point worked out at 167 °C, the log10 vapour pressure (mmHg) came out at 0.304 and the ready biodegradability entry is reported as “readily biodegradable”. Consider `CCCCCCCCCCCCC`, for which the boiling point turned out to be 235 °C, the log10 biodegradation half-life (days) is 1.08, the log10 vapour pressure (mmHg) was -1.25 and the melting point is -5.3 °C. Also, the ready biodegradability result is given as “readily biodegradable”. In turn, `O=[N+]([O-])c1ccc2ncccc2c1` came in with a melting point of 154 °C. Same read-out and setting: the figure for `Cc1c(Cl)ccc(OC(C)C(O)=Nc2ccccc2)c1Cl` (stereo not given) is 146 °C. Take `CCCCCI`: the boiling point worked out at 155 °C, the log10 Henry constant (atm·m³/mol) is -1.71, the log10 vapour pressure (mmHg) worked out at 0.642 and the melting point was -85.6 °C. Turning to `CCCCCC=CCC=CCCCCCCCC(=O)O`, the ready biodegradability result is reported as “readily biodegradable”. The compound `OCCCCCCCO` returned a boiling point of 262 °C and a melting point of 22.5 °C.

On to `CC(=O)C1CC1`, for which the boiling point was determined as 111 °C, the log10 Henry constant (atm·m³/mol) is -4.99 and the melting point was -68.3 °C. `Oc1ccc2cccc(O)c2c1` came in with a melting point of 180 °C.

`COC(=O)C(=O)OC` yielded a boiling point of 164 °C, a log10 vapour pressure (mmHg) of 0.0584 and a melting point of 54.3 °C. For the compound `O=C(CC(=O)c1ccccc1)c1ccccc1`, the melting point came out at 70.5 °C and the ready biodegradability result is on record as “readily biodegradable”.

Take `CC(=O)OCC(C)C`: the boiling point came out at 116 °C, the log10 Henry constant (atm·m³/mol) is -3.34, the log10 Koa is 3.45 and the log10 vapour pressure (mmHg) turned out to be 1.25. For the same compound, the melting point is -98.8 °C and the ready biodegradability result was “readily biodegradable”.

In turn, `O=CN1CCOCC1` showed a boiling point of 239 °C and a melting point of 21 °C. Taken in the same sequence, the figures for `C1CCN2C[C@@H]3C[C@@H](CN4CCCC[C@@H]34)[C@H]2C1` were 325 °C and 30.5 °C.

As for `Cc1ccc2cnccc2c1`, the boiling point came out at 266 °C and the melting point was found to be 85.5 °C.

The compound `CCCCC(C(N)=O)n1nnc2ccccc21` (stereo not given) showed a melting point of 118 °C.

Turning to `O=C(O)c1nc[nH]c1C(=O)O`, the melting point worked out at 288 °C. Still for that read-out and setting: the figure for `c1ccc2c(c1)CCc1ccccc1N2` is 106 °C; for `CC(C)(C)N(NC(=O)c1ccccc1)C(=O)c1ccccc1` it is 178 °C; for `c1ccc2cc(Oc3ccc4ccccc4c3)ccc2c1` it is 105 °C. In turn, `CC(C)(C)[N+](=O)[O-]` came in with a boiling point of 127 °C, a log10 vapour pressure (mmHg) of 1.08 and a melting point of 26.2 °C. Take `OC(Cc1ccccc1)(c1ccccc1)c1ccccc1`: the melting point is 89.5 °C. On the same count and under the same terms, the figure for `OC[C@H]1O[C@@](CO)(O[C@H]2O[C@H](CO)[C@@H](O)[C@H](O)[C@H]2O)[C@@H](O)[C@@H]1O` is 186 °C; for `O=C(O)CNC(=S)C(=S)NCC(=O)O` it is 220 °C. Same read-out and setting: the figure for `COC(=O)c1ccc(N)cc1` is 110 °C. In turn, `CC(=O)OCCO` displayed a boiling point of 188 °C. In the case of `CCCCCCN(CCCCCC)C(=O)COC(=O)c1ccccc1`, the melting point was 162 °C. As to `CCCCCCCCCCCCCCCCCCCCCCCCCCC`, the boiling point came out at 442 °C, the log10 biodegradation half-life (days) is 2.15, the log10 vapour pressure (mmHg) was -6.55 and the melting point came to 59.5 °C. For `Clc1ccc(Br)cc1Cl`, the boiling point amounted to 237 °C and the melting point worked out at 25 °C. Take `Ic1cccc(I)c1I`: the melting point was 116 °C.

`COC(=O)C1(S(=O)(=O)c2ccc(Br)cc2)CCCCC1` had a melting point of 112 °C. On to `CCC(=O)OC(=O)CC`, for which the boiling point turned out to be 170 °C, the log10 vapour pressure (mmHg) was determined as 0.134, the melting point was -45 °C and the ready biodegradability result is listed as “readily biodegradable”. In turn, `CC(=O)[C@@]1(C)CC[C@H]2[C@@H]3C=C(C)C4=CC(=O)CC[C@]4(C)[C@H]3CC[C@@]21C` registered a melting point of 144 °C.

The same series, now with this note: fish.
As to `CCCCCCCCCCCCC`, the log10 biotransformation half-life (days) turned out to be 1.03.
